Legend:
sGC = target: T1, sGC (Rattus norvegicus, UniProt P20595); experiment: Action at a recombinant guanylate cyclase reporter cell line (CHO reporter cell); assay type: cell-based; conditions: CHO reporter cell in vitro
T1 construct: expressed in transfected cells; host or cells: CHO reporter cell
Method: The cellular action of the compounds according to the invention is determined at a recombinant guanylate cyclase reporter cell line, as described in F. Wunder et al., Anal. Biochem. 339, 104-112 (2005).

GAL4-PPARα = target: T2, GAL4-PPARα (Homo sapiens, UniProt Q07869); experiment: Cellular PPAR transactivation assay, GAL4-PPARα chimera in CHO-K1 cells; assay type: cell-based; conditions: for Emax: CHO-K1, maximum effect relative to reference compound (Example 73 of EP 1 452 521-A1 = 100%), read-out: PPARα efficacy; for EC50: CHO-K1 cells, luciferase reporter, 6 h stimulation
T2 construct: expressed in transfected cells
T2 sequence (Q07869 167-468): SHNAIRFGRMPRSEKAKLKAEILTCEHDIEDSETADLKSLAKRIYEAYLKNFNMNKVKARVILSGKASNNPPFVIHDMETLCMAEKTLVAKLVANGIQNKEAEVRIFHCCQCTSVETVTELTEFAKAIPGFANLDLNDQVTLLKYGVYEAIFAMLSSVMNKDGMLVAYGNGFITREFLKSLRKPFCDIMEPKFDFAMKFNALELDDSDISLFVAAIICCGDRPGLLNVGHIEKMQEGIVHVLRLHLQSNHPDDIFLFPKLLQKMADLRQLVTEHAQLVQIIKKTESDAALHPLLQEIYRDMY
Procedure, shortened: (§1)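 CHO-K1 cells stably expressing GAL4 DNA-binding domain fused to the human PPAR ligand-binding domain (α aa 167-468, γ aa 203-506, δ aa 138-442) plus a GAL4-driven firefly luciferase reporter. Compounds added in serum-free medium for 6 h; EC50 from luminescence curves. Efficacy in % of a pan-PPAR agonist reference set as 100%.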

GAL4-PPARγ = target: T3, GAL4-PPARγ (Homo sapiens, UniProt P37231); experiment: Cellular PPAR transactivation assay, GAL4-PPARγ chimera in CHO-K1 cells; assay type: cell-based; conditions: for Emax: CHO-K1, maximum effect relative to reference compound (Example 73 of EP 1 452 521-A1 = 100%), read-out: PPARγ efficacy; for EC50: CHO-K1 cells, luciferase reporter, 6 h stimulation
T3 construct: PPARγ (amino acids 203-506); expressed in transfected cells
T3 sequence (P37231 203-505 limits assumed): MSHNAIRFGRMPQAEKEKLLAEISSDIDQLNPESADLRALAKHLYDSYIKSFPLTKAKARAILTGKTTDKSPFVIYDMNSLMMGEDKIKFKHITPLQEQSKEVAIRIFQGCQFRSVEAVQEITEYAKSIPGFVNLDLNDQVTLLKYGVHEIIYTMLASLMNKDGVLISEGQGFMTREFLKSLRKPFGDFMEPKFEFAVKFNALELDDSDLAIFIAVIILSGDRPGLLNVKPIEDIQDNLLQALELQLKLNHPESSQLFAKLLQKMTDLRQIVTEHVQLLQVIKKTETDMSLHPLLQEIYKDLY
Procedure, shortened: as §1

Haem-free sGC = target: T4, Haem-free sGC (Rattus norvegicus, UniProt P20595); experiment: Stimulation of recombinant soluble guanylate cyclase (sGC) in vitro, haem-free enzyme; assay type: biochemical
T4 construct: made in house; host or cells: Sf9 insect cells (baculovirus)
T4 sequence (P19686 whole entry partner): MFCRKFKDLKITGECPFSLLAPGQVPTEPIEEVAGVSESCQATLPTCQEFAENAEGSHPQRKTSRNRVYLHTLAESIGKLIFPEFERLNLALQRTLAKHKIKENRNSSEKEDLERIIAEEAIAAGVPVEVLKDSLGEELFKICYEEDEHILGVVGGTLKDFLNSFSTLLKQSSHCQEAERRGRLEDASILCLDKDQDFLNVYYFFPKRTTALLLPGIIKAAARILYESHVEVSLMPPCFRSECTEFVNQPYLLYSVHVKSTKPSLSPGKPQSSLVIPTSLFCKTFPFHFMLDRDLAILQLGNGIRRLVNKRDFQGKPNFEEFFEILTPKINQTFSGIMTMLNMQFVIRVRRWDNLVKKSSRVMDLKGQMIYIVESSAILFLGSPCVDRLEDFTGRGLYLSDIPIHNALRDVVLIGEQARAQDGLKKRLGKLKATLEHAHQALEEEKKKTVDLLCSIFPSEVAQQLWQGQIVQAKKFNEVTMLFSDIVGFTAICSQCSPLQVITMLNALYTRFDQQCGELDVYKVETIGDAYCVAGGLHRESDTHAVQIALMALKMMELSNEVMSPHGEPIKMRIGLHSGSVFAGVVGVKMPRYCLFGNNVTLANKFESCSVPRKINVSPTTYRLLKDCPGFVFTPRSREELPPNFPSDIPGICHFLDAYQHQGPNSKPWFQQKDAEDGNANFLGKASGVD
T4 sequence (P20595 whole entry): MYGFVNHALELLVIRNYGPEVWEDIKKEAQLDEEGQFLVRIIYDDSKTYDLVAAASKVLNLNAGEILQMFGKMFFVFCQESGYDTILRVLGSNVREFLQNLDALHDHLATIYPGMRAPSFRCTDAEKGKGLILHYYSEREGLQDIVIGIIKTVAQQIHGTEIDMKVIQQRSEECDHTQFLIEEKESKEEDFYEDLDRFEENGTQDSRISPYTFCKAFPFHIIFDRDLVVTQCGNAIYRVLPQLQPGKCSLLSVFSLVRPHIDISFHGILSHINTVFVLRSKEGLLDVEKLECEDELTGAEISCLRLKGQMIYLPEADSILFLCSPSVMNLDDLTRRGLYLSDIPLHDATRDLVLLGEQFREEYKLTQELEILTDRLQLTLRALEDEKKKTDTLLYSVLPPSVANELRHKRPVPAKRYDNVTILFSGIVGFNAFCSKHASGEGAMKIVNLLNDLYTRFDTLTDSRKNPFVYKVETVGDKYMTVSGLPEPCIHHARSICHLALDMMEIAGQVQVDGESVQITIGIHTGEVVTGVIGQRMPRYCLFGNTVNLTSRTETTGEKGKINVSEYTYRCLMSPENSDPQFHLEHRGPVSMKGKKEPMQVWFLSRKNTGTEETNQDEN
Method: Investigations on the stimulation of recombinant soluble guanylate cyclase (sGC) by the compounds according to the invention with and without sodium nitroprusside, and with and without the haem-dependent sGC inhibitor 1H-1,2,4-oxadiazolo[4,3a]quinoxalin-1-one (ODQ), are carried out by the method described in detail in the following reference: M. Hoenicka, E. M. Becker, H. Apeler, T. Sirichoke, H. Schroeder, R. Gerzer and J.-P. Stasch, “Purified soluble guanylyl cyclase expressed in a baculovirus/Sf9 system: Stimulation by YC-1, nitric oxide, and carbon oxide”, J. Mol. Med. 77 (1999), 14-23. The haem-free guanylate cyclase is obtained by adding Tween 20 to the sample buffer (0.5% in the final concentration).
The activation of sGC by a test substance is reported as x-fold stimulation of the basal activity.

T1 sequence (P19686 whole entry partner): as the sequence (P19686 whole entry partner) above
T1 sequence (P20595 whole entry): as the sequence (P20595 whole entry) above

| Compound | MEC (minimum effective concentration), sGC-activating activity in the CHO reporter cell (sGC) [nM] | Emax (GAL4-PPARα) [%] | EC50 (GAL4-PPARα) [µM] | Emax (GAL4-PPARγ) [%] | EC50 (GAL4-PPARγ) [µM] | Stimulation (x-fold) of recombinant sGC, Basal (Haem-free sGC; test substance 0.01 μM) [x-fold] | Stimulation (x-fold) of recombinant sGC, Basal (Haem-free sGC; test substance 0.1 μM) [x-fold] | Stimulation (x-fold) of recombinant sGC, Basal (Haem-free sGC; test substance 1.0 μM) [x-fold] | Stimulation (x-fold) of recombinant sGC, Basal (Haem-free sGC; test substance 10 μM) [x-fold] | Stimulation (x-fold) of recombinant sGC, Basal (Haem-free sGC; test substance 100 μM) [x-fold] |
| --- | --- | --- | --- | --- | --- | --- | --- | --- | --- | --- |
| C[C@H]([C@H](C(=O)Nc1cc(CC2(C(=O)O)CC2)ccc1Cl)c1ccc(Cl)c(F)c1)C(F)(F)F [Example 30, (+)-1-(4-chloro-3-{[(2S,3R)-2-(4-chloro-3-fluoro-phenyl)-4,4,4-trifluoro-3-methylbutanoyl]amino}-benzyl)cyclopropanecarboxylic acid] | 0.3 | 0 | > 10 | 20 | 2.3 | – | – | – | – | – |
| C[C@H]([C@H](C(=O)Nc1cc(CC2(C(=O)O)CC2)ccc1Cl)c1ccc(Cl)cc1)C(F)(F)F [Example 50, (+)-1-(4-Chloro-3-{[(2S,3R)-2-(4-chlorophenyl)-4,4,4-trifluoro-3-methylbutanoyl]amino}benzyl)-cyclopropanecarboxylic acid] | 0.4 | 0 | > 10 | 45 | 3 | 2.6 ± 0.8 | 7.1 ± 2.4 | 27.2 ± 7.4 | 41.2 ± 9.8 | 39.0 ± 9.1 |
| [2H]C([2H])([2H])OC(c1ccc(Cl)c(NC(=O)[C@H](c2ccc(Cl)cc2)[C@@H](C)C(F)(F)F)c1)C1(C(=O)O)CC1 (single isomer, unassigned; (+)) [Example 99] | 1 | 0 | > 10 | 0 | > 10 | 2.0 ± 0.4 | 5.2 ± 0.8 | 14.9 ± 2.2 | 19.4 ± 2.8 | – |
| CCOC(c1ccc(Cl)c(NC(=O)[C@H](c2ccc(Cl)cc2)[C@@H](C)C(F)(F)F)c1)C1(C(=O)O)CC1 (single isomer, unassigned) [Example 101] | 0.3 | 0 | > 10 | 0 | > 10 | – | – | – | – | – |

From patent publication US9018258B2, “Substituted 1-benzylcycloalkylcarboxylic acids and the use thereof” (Bayer Intellectual Property GmbH, priority 2010, dated 2015)
